Assay [1] has as its system human MDA-MB-231 breast cancer cells. The experiment in a line: PhotoImmunoNanoTherapy, subcutaneous MDA-MB-231 breast tumor growth in athymic nude mice. It counts as in vivo. The settings on record: subcutaneous MDA-MB-231 in athymic nude mice; one injection, NIR laser 24 h later. The text has this:
To evaluate the antitumor efficacy of PhotoImmunoNanoTherapy, two murine models of breast cancer were utilized to study effects in T-cell-competent hosts (murine 410.4 cells in BALB/cJ mice) and T-cell-deficient hosts (human MDA-MB-231 cells in athymic nude mice; murine 410.4 cells in NOD.CB17-Prkdcscid/J mice), in addition to a subcutaneously engrafted model of pancreatic cancer (murine Panc-02 cells in C57BL/6J mice), an orthotopic pancreatic cancer model (human BxPC-3 cells in athymic nude mice), and an experimental model of lung-metastatic osteosarcoma (human SAOS-2-LM7 cells in athymic nude mice). Treatments were initiated one week following tumor establishment and consisted of injections of ICG-CPSNPs or controls followed 24 h later by NIR laser treatment of the tumor location to allow adequate tumor accumulation of PEGylated ICGCPSNPs. […] In the most elaborate study, MDA-MB-231 tumor growth was abrogated in athymic nude mice receiving PEGylated ICG-CPSNPs but not PBS or PEGylated ghost CPSNPs (FIG. 1A). Furthermore, MDA-MB-231 tumor growth was not blocked by non-PEGylated (citrate-terminated) ICG-CPSNPs or free ICG.
Orthotopic pancreatic cancer and subcutaneous breast cancer tumors were established in athymic nude, NOD.CB17-Prkdcscid/J, BALB/cJ, or C57BL/6J mice as previously described (8, 9), with minor modifications. […] Tumor size was measured by caliper measurement. […]

The subject of assay [2] is isolated IMCs (GEMM colonies, multipotent myeloid progenitor cells). Put plainly: CFU-GEMM colony forming assay of isolated IMCs. It counts as cell-based, athymic nude mice. To be noted: 5 μM, GEMM-supportive semi-solid media, 3 weeks of culture. As for the experimental part:
(A) Splenic IMCs (Gr-1+CD11b+, also defined as MDSCs: myeloid-derived suppressor cells) were isolated from MDA-MB-231 tumor-bearing athymic nude mice and exposed to BSA, S1P (5 μM), or dhS1P (5 μM). Following 24-hour culture incubation, cells were labeled with specific antibodies and analyzed by multicolor flow cytometry (red: IMCs; blue: possible B-cells). (B) Splenic IMCs were isolated from MDA-MB-231 tumor-bearing athymic nude mice and cultured (5×10^4 cells/mL) in GEMM-supportive semi-solid media with BSA, S1P (5 μM), or dhS1P (5 μM). GEMM colonies (multipotent myeloid progenitor cells) were visualized and counted after 3 weeks of culture. ANOVA, *p<0.01 compared to no treatment or BSA-treatment, ***p<0.001 compared to S1P-treatment, n≧3. (C) Splenic hematopoietic progenitors (Lineage-Sca-1+CD117+) were isolated from MDA-MB-231 tumor-bearing athymic nude mice and exposed to BSA, S1P (5 μM), or dhS1P (5 μM). Following 24-hour culture incubation, cells were labeled with specific antibodies and analyzed by multicolor flow cytometry. […]
Isolated IMCs from the spleens of tumor-bearing athymic nude mice were cultured (5×10^4 cells/mL) in GEMM-supportive complete (mouse) methylcellulose media (R&D Systems, Minneapolis, Minn.), according to the manufacturer's instructions, with BSA, S1P (5 μM), or dhS1P (5 μM). GEMM colonies were visualized and counted after 3 weeks of culture.

The test system of assay [3] is murine Panc-02 pancreatic cancer cells. Put plainly: Injection of BSA-conjugated sphingolipids into mice with subcutaneous Panc-02 tumors. It counts as in vivo. To be noted: subcutaneous Panc-02 in C57BL/6J mice; injection every other day, 0.1 mL of 100 μM, BSA carrier. The source says:
(A) Splenic IMCs (Gr-1+CD11b+, also defined as MDSC: myeloid-derived suppressor cells) were isolated from subcutaneous human MDA-MB-231 breast tumor-bearing athymic nude mice, treated with or without dhS1P (to induce the expansion of CD19+CD45R B220+ cells: B-cells), and adoptively transferred into subcutaneous human MDA-MB-231 breast tumor-bearing athymic nude mice before monitoring tumor growth. ANOVA, **p<0.05 compared to PBS control, n≧6. (B) Splenic IMCs were isolated from orthotopic human BxPC-3 pancreatic tumor-bearing athymic nude mice, treated with or without dhS1P, and adoptively transferred into orthotopic human BxPC-3 pancreatic tumor-bearing athymic nude mice before monitoring survival. Logrank test, *p<0.05, n=5. (C) Tumor growth following BSA (lipid carrier control), sphingosine-1-phosphate (S1P), or dhS1P injection every other day, was monitored in C57BL/6J mice engrafted with subcutaneous murine Panc-02 pancreatic cancer cells. ANOVA, **p<0.05 compared to BSA control, n≧6.
Orthotopic pancreatic cancer and subcutaneous breast cancer tumors were established in athymic nude, NOD.CB17-Prkdcscid/J, BALB/cJ, or C57BL/6J mice as previously described (8, 9), with minor modifications. All cell lines used in animal and cellular studies, prior to any modification, were originally obtained from the American Type Culture Collection (Manassas, Va.). For orthotopic BxPC-3-GFP human pancreatic cancer xenografts, 4-6 week old female athymic mice were fully anesthetized with a mixture of ketamine-HCl (129 mg/kg) and xylazine (4 mg/kg) injected intramuscularly. A small incision was made in the left flank, the peritoneum was dissected and the pancreas exposed. Using a 27-gauge needle, 2.5×10^6 cells, prepared in 0.1 mL of Hank's balanced salt solution, were injected into the pancreas. For experimental lung-metastatic osteosarcoma xenografts, 4-6 week old female athymic nude mice were tail vein-injected with 2.5×10^6 human SAOS-2-LM7 cells. […] Tumor size was measured by caliper measurement. […]

Consider `CC1(C)C(/C=C/C=C/C=C/C=C2\N(CCCCS(=O)(=O)O)c3ccc4ccccc4c3C2(C)C)=[N+](CCCCS(=O)(=O)[O-])c2ccc3ccccc3c21` [free ICG, indocyanine green], for which the Tumor growth entry in assay [1] is given as “not blocked”.
With `CCCCCCCCCCCCC/C=C/[C@@H](O)[C@@H](N)COP(=O)(O)O` [S1P, sphingosine-1-phosphate, reference compound], the CFU-GEMM colony formation result in assay [2] is “dramatically augmented”. In addition, in assay [3], the Tumor growth entry is “augmented tumor growth”.

The values are drawn from patent US20160206633A1, “dhS1P AND USE OF SAME AS AN ANTICANCER THERAPEUTIC AND IMMUNOMODULATOR” (Penn State Research Foundation, Inc., priority 2013, published 2016).
